Data: PubChem BioAssay AID248 (DTP/NCI, 2004)
Inconclusive results and toxic doses are left out. Rule as the data show it: active = T/C of 150% or more; inactive = T/C below 125%.

Tested on: L1210 leukemia ip in BDF1 mice, survival T/C
Assay: NCI In Vivo Anticancer Drug Screen. Data for tumor model L1210 Leukemia (intraperitoneal) in B6D2F1 (BDF1) mice
Details: endpoint: mean survival time, higher = longer survival
Outline: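 Antitumor effect is assessed in tumor-bearing animals. Survival in the compound arm is compared with a vehicle-dosed control arm and expressed as their quotient.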

[1] = dose: 100.0 mg/kg/injection, schedule: Q01DX001 (ip), vehicle: Klucel (hydroxypropylcellulose) (HPC)
[2] = dose: 200.0 mg/kg/injection, schedule: Q01DX001 (ip), vehicle: Klucel (hydroxypropylcellulose) (HPC)
[3] = dose: 400.0 mg/kg/injection, schedule: Q01DX001 (ip), vehicle: Klucel (hydroxypropylcellulose) (HPC)
[4] = dose: 12.5 mg/kg/injection, schedule: Q04DX002 (ip), vehicle: Klucel (hydroxypropylcellulose) (HPC)
[5] = dose: 25.0 mg/kg/injection, schedule: Q04DX002 (ip), vehicle: Klucel (hydroxypropylcellulose) (HPC)
[6] = dose: 50.0 mg/kg/injection, schedule: Q04DX002 (ip), vehicle: Klucel (hydroxypropylcellulose) (HPC)
[7] = dose: 100.0 mg/kg/injection, schedule: Q01DX001 (ip), vehicle: saline
[8] = dose: 100.0 mg/kg/injection, schedule: Q04DX003 (ip), vehicle: saline
[9] = dose: 200.0 mg/kg/injection, schedule: Q01DX001 (ip), vehicle: saline
[10] = dose: 400.0 mg/kg/injection, schedule: Q01DX001 (ip), vehicle: saline
[11] = dose: 100.0 mg/kg/injection, schedule: Q04DX003 (ip), vehicle: saline with Tween-80
[12] = dose: 100.0 mg/kg/injection, schedule: Q04DX003 (ip), vehicle: Klucel (hydroxypropylcellulose) (HPC)
[13] = dose: 200.0 mg/kg/injection, schedule: Q04DX003 (ip), vehicle: Klucel (hydroxypropylcellulose) (HPC)
[14] = dose: 400.0 mg/kg/injection, schedule: Q04DX003 (ip), vehicle: Klucel (hydroxypropylcellulose) (HPC)

Measured: T/C

O=C(O)c1c[nH]c2c(C(F)(F)F)cccc2c1=O
inactive: dose: 50.0 mg/kg/injection, schedule: Q01DX001 (ip), vehicle: carboxymethylcellulose (CMC) 88 % of control | dose: 100.0 mg/kg/injection, schedule: Q01DX001 (ip), vehicle: carboxymethylcellulose (CMC) 98 % of control | dose: 200.0 mg/kg/injection, schedule: Q01DX001 (ip), vehicle: carboxymethylcellulose (CMC) 88 % of control | dose: 400.0 mg/kg/injection, schedule: Q01DX001 (ip), vehicle: carboxymethylcellulose (CMC) 90 % of control

Nc1cc([N+](=O)[O-])cc([N+](=O)[O-])c1Cl
inactive: [1] 93 % of control | [2] 96 % of control | [3] 101 % of control

NC(CC(=O)NCC(=O)O)C(=O)O (stereo not drawn)
inactive: [4] 105 % of control | [5] 98 % of control | [6] 94 % of control

COCC1OC(OC(=O)c2ccccc2)C(OC(=O)c2ccccc2)C(OC(=O)c2ccccc2)C1OC (stereo not drawn)
inactive: dose: 12.5 mg/kg/injection, schedule: Q01DX009 (ip), vehicle: saline with Tween-80 97 % of control | dose: 25.0 mg/kg/injection, schedule: Q01DX009 (ip), vehicle: saline with Tween-80 95 % of control | dose: 50.0 mg/kg/injection, schedule: Q01DX009 (ip), vehicle: saline with Tween-80 93 % of control

Cc1ccc(C)c2c(Cl)c3c(C)ccc(C)c3nc12
inactive: dose: 100.0 mg/kg/injection, schedule: Q01DX009 (ip), vehicle: Klucel (hydroxypropylcellulose) (HPC) 98 % of control | dose: 100.0 mg/kg/injection, schedule: Q04DX003 (ip), vehicle: other 100 % of control | dose: 200.0 mg/kg/injection, schedule: Q01DX009 (ip), vehicle: Klucel (hydroxypropylcellulose) (HPC) 90 % of control | dose: 200.0 mg/kg/injection, schedule: Q04DX003 (ip), vehicle: other 97 % of control | dose: 400.0 mg/kg/injection, schedule: Q01DX009 (ip), vehicle: Klucel (hydroxypropylcellulose) (HPC) 96 % of control | dose: 400.0 mg/kg/injection, schedule: Q04DX003 (ip), vehicle: other 95 % of control

O=C(Cl)c1c(Cl)c(Cl)c(C(=O)Cl)c(Cl)c1Cl
inactive: dose: 25.0 mg/kg/injection, schedule: Q01DX009 (ip), vehicle: saline 90 % of control | dose: 50.0 mg/kg/injection, schedule: Q01DX009 (ip), vehicle: saline 97 % of control | [7] 98 % of control | [8] 100 % of control | [9] 98 % of control | [10] 104 % of control

COc1cc2c(cc1OC)-c1cc3cc(OC)c(OC)cc3c(C)[n+]1CC2
inactive: [4] 102 % of control | [5] 105 % of control | [6] 105 % of control

ClC1=C(Cl)C(Cl)(Cl)SS1
inactive: dose: 9.5 mg/kg/injection, schedule: Q01DX001 (ip), vehicle: other 100 % of control | dose: 10.0 mg/kg/injection, schedule: Q04DX003 (ip), vehicle: other 100 % of control | dose: 19.0 mg/kg/injection, schedule: Q01DX001 (ip), vehicle: other 103 % of control | dose: 20.0 mg/kg/injection, schedule: Q04DX003 (ip), vehicle: other 92 % of control | dose: 38.0 mg/kg/injection, schedule: Q01DX001 (ip), vehicle: other 91 % of control | dose: 40.0 mg/kg/injection, schedule: Q04DX003 (ip), vehicle: other 89 % of control | dose: 75.0 mg/kg/injection, schedule: Q01DX001 (ip), vehicle: other 93 % of control

CC[S+](CC)CC
inactive: [8] 95 % of control | dose: 200.0 mg/kg/injection, schedule: Q04DX003 (ip), vehicle: saline 95 % of control

Br/C=C(\Br)CBr
inactive: dose: 75.0 mg/kg/injection, schedule: Q01DX001 (sc), vehicle: olive oil, sesame oil, peanut oil 105 % of control | dose: 150.0 mg/kg/injection, schedule: Q01DX001 (sc), vehicle: olive oil, sesame oil, peanut oil 108 % of control

COC1OCC(OC(C)=O)C(NC(C)=O)C1OC(C)=O (stereo not drawn)
inactive: [7] 100 % of control | [9] 101 % of control | [10] 111 % of control

CCOC(=O)C(C)(C(=O)OCC)c1cc(OC)c(C)cc1Br
inactive: dose: 50.0 mg/kg/injection, schedule: Q04DX003 (ip), vehicle: saline with Tween-80 100 % of control | [11] 103 % of control | dose: 200.0 mg/kg/injection, schedule: Q04DX003 (ip), vehicle: saline with Tween-80 100 % of control | dose: 400.0 mg/kg/injection, schedule: Q04DX003 (ip), vehicle: saline with Tween-80 97 % of control

CCCCOC(=O)Nc1ccccc1
inactive: dose: 100.0 mg/kg/injection, schedule: Q04DX003 (ip), vehicle: gum acacia 101 % of control | dose: 200.0 mg/kg/injection, schedule: Q04DX003 (ip), vehicle: gum acacia 108 % of control | dose: 400.0 mg/kg/injection, schedule: Q04DX003 (ip), vehicle: gum acacia 109 % of control

CCCSCCNC(=O)NCCSCCC
inactive: dose: 100.0 mg/kg/injection, schedule: Q04DX002 (ip), vehicle: other 107 % of control | dose: 200.0 mg/kg/injection, schedule: Q04DX002 (ip), vehicle: other 104 % of control | dose: 400.0 mg/kg/injection, schedule: Q04DX002 (ip), vehicle: other 100 % of control

O=[N+]([O-])c1ccc(N/N=C/c2cc(Cl)cc(Cl)c2)c([N+](=O)[O-])c1
inactive: [7] 100 % of control | [9] 105 % of control | [10] 96 % of control

O=C(SCc1ccccc1)c1cccnc1
inactive: [11] 99 % of control

COc1c(NC(=O)c2ccc(Cl)c(Cl)c2)cccc1[N+](=O)[O-]
inactive: dose: 100.0 mg/kg/injection, schedule: Q01DX009 (ip), vehicle: saline with Tween-80 89 % of control | dose: 200.0 mg/kg/injection, schedule: Q01DX009 (ip), vehicle: saline with Tween-80 89 % of control | dose: 400.0 mg/kg/injection, schedule: Q01DX009 (ip), vehicle: saline with Tween-80 89 % of control

C#CCCCCC#CCCCCCl
inactive: dose: 25.0 mg/kg/injection, schedule: Q01DX009 (ip), vehicle: acetone 104 % of control | dose: 50.0 mg/kg/injection, schedule: Q01DX009 (ip), vehicle: acetone 95 % of control | dose: 100.0 mg/kg/injection, schedule: Q01DX009 (ip), vehicle: acetone 87 % of control | dose: 100.0 mg/kg/injection, schedule: Q04DX003 (ip), vehicle: acetone 90 % of control | dose: 200.0 mg/kg/injection, schedule: Q04DX003 (ip), vehicle: acetone 93 % of control

O=[N+]([O-])c1ccc(C=Nc2ccccc2-c2ccccc2)s1
inactive: [12] 98 % of control | [13] 98 % of control | [14] 95 % of control

CC(=O)CC(C)=NCCN=C(C)CC(C)=O.[Ni]
inactive: dose: 1.56 mg/kg/injection, schedule: Q01DX009 (ip), vehicle: gum acacia 103 % of control | dose: 3.12 mg/kg/injection, schedule: Q01DX009 (ip), vehicle: gum acacia 104 % of control | dose: 6.25 mg/kg/injection, schedule: Q01DX009 (ip), vehicle: gum acacia 100 % of control | dose: 12.5 mg/kg/injection, schedule: Q01DX009 (ip), vehicle: gum acacia 99 % of control | dose: 12.5 mg/kg/injection, schedule: Q04DX003 (ip), vehicle: gum acacia 117 % of control | dose: 25.0 mg/kg/injection, schedule: Q04DX003 (ip), vehicle: gum acacia 118 % of control | dose: 50.0 mg/kg/injection, schedule: Q04DX003 (ip), vehicle: gum acacia 103 % of control

CN(C)C(=O)Nc1ccc(C#N)cc1
inactive: dose: 100.0 mg/kg/injection, schedule: Q04DX002 (ip), vehicle: Klucel (hydroxypropylcellulose) (HPC) 89 % of control | dose: 200.0 mg/kg/injection, schedule: Q04DX002 (ip), vehicle: Klucel (hydroxypropylcellulose) (HPC) 103 % of control | dose: 400.0 mg/kg/injection, schedule: Q04DX002 (ip), vehicle: Klucel (hydroxypropylcellulose) (HPC) 106 % of control

CC(=O)OCc1cc(=O)n(C)c2c3c4c(cc12)c(C)cc(=O)n4CO3
inactive: [1] 109 % of control | [12] 104 % of control | [2] 114 % of control | [13] 117 % of control | [3] 118 % of control | [14] 123 % of control
